Assay results: patent US12275688B2, “Crystalline solids of MEK inhibitor N-((R)-2,3-dihydroxypropoxy)-3,4-difluoro-2-(2-fluoro-4-iodo-phenylamino)-benzamide and uses thereof” (SpringWorks Therapeutics, Inc., priority 2021, dated 2025)

Experiments:
Type in all cases: physicochemical
[1] = Water activity studies of hydrates at 23° C.; conditions: water activities (aw) 0.6-0.99
Experimental: Water activity studies of the stable hydrated Forms VI and XIX were conducted to determine their relative thermodynamic stabilities. The studies were conducted at 23° C. in various water/ethanol mixtures to provide water activities (aw) from 0.6-0.99. The water activity range includes the approximate water activity of the current final isolation step of the mirdametinib manufacturing process. Saturated suspensions were prepared by stirring an excess of mirdametinib in the test solvents for 16 hours. The suspensions were filtered and transferred onto mixtures containing equivalent amounts of Form VI and Form XIX. […] The hydrates may be kinetically favored at higher water activities.

[2] = Drying of certain forms via vacuum oven at 45° C.; conditions: overnight in vacuum oven at 45° C.; PXRD at about 70% ambient lab humidity
Experimental: Drying studies for certain forms were conducted overnight in a vacuum oven at 45° C. After drying, samples were equilibrated to RT for 10 min. and analyzed by PXRD at about 70% ambient lab humidity.

[3] = Toluene-spiked slurry studies of Form V in water:ethanol; conditions: water:ethanol (1.1/0.5 v/v) overnight at RT
From the text: The process-relevant toluene solvate (Form V) was stirred in water:ethanol (1.1/0.5 v/v) overnight at RT with varying amounts of added toluene. The suspensions were filtered, and solids analyzed by PXRD.

[4] = Desolvation/dehydration by heating in TGA pan to 100° C.; conditions: 15° C./min from 25 to 100° C., 5 min. hold at 100° C., air-cooled to RT
Experimental: Desolvation/dehydration studies of certain forms were conducted in a TGA pan with loose lid at a heating rate of 15° C./min from 25 to 100° C. with a 5 min. hold at 100° C. Samples were air-cooled to RT on the TGA and analyzed by PXRD if crystalline. […] PXRD indicated Form I.

[5] = Solid-state stability of crystal forms at ambient conditions; conditions: ambient conditions
From the text: The following sections describe and summarize the physical properties of each of the crystal forms observed for mirdametinib.

## O=C(NOC[C@H](O)CO)c1ccc(F)c(F)c1Nc1ccc(I)cc1F [Form IV, N—((R)-2,3-dihydroxypropoxy)-3,4-difluoro-2-(2-fluoro-4-iodo-phenylamino)-benzamide]
[1]
  Relative stability versus hydrate Forms VI and XIX: more stable at water activities (aw) 0.6-0.99 than hydrate Forms VI and XIX

## O=C(NOC[C@H](O)CO)c1ccc(F)c(F)c1Nc1ccc(I)cc1F [Form V, N—((R)-2,3-dihydroxypropoxy)-3,4-difluoro-2-(2-fluoro-4-iodo-phenylamino)-benzamide]
[2]
  Form after vacuum oven drying (PXRD): Remained unchanged
[3]; 0.5% added toluene (relative to mirdametinib weight)
  Form after slurry (PXRD): converted to mostly Form IV with some lesser amount of Form V
[3]; 1% and 2% added toluene
  Form after slurry (PXRD): higher relative amounts of Form V were observed
[3]; no added toluene
  Form after slurry (PXRD): converted to phase-pure Form IV
[4]
  Result of desolvation/dehydration by heating: melted and solidified in molten, amorphous state, possible decomposition
[5]
  Stable at ambient conditions for: ≥ 10 days
